Earlier results in patent US10307432B2, “Stabilized liquid fosaprepitant formulations” (Cipla Limited, priority 2015, dated 2019).

Tests used:
[1] = system: serotonin, dopamine or corticosteroid receptors
[2] = after an IV infusion

affinity for serotonin, dopamine or corticosteroid receptors [1] | time of conversion to aprepitant [2] | SMILES
little or no affinity |  | C[C@@H](O[C@H]1OCCN(Cc2n[nH]c(=O)[nH]2)[C@H]1c1ccc(F)cc1)c1cc(C(F)(F)F)cc(C(F)(F)F)c1 [Aprepitant]
 | less than 30 minutes | C[C@@H](O[C@H]1OCCN(Cc2nc(O)n(P(=O)(O)O)n2)[C@H]1c1ccc(F)cc1)c1cc(C(F)(F)F)cc(C(F)(F)F)c1 [Fosaprepitant]
